Data taken from patent US20150352075A1, “Treatment of Alzheimer's and Cognitive Impairment With Andrographolides” (INNOBIOSCIENCE, LLC, priority 2013, published 2015).
pIC50: −log10 of the molar value. Where two headings read alike, the source gives them in different places.

Assays:
[1] = test system: Wnt/β-catenin pathway in cultured rat hippocampal neurons; assay: Wnt/β-catenin pathway activation in cultured hippocampal neurons (western blot, immunofluorescence); assay type: cell-based
Protocol: Primary culture of rat hippocampal neurons. Rat hippocampal cultures were prepared as previously described (Arrazola et al, 2009). On day 3 of culture, hippocampal cells were treated with […] 1-b-Darabinofuranosylcytosine (AraC) during 24 h to reduce the number of proliferating non-neuronal cells. […] PCR-ARRAY. RNA from hippocampal neurons was extracted using Trizol. Quantification and purity of RNA preparations were checked by absorbance using Nanodrop ND-2000. Only preparations with a 260/280 nm ratio ≧1.8, a 260/230 nm ratio ≧1.7 and no sign of RNA degradations, verified by agarose gel electrophoresis with Gel Red™ were used. Genomic DNA was degraded. Using RT2First-Strand cDNA Synthesis kit (SuperArray), 1 ng total RNA was reverse transcribed and then real-time PCR was performed by adding cDNA directly to PCR Master Mix, containing SYBR Green and ROX. The mixtures were then aliquoted into a 96-well PCR array plates, which profiles the expression of 84 Wnt target genes from rat. The PCR was run on ABI StepOnePlus, with 1 cycle of 10 min at 95° C. followed by 40 cycles of 15s at 95° C. and 1 min at 60° C. Cycle threshold (Ct) values were calculated for all the genes present on the array (Schmittgen & Livak, 2008). Treatment of neuronal cultures. Primary hippocampal cultures of neurons 14 DIV were washed twice in neurobasal medium and maintained for 1 hour. Next ANDRO (10 μM) and 6-BIO (10 μM) were added to different time periods.
Following a time-course treatment, neurons were washed with cold PBS and harvested in 600 μL of cold homogenization buffer (10 mM HEPES pH 7.9; 1.5 mM MgCl2; 10 mM KCl; 1 mM DTT). The cells were disrupted by 20 passed, back and forth, through a syringe of 1mL. Lysates were centrifuged for 6 minutes at 700 g at 4° C. and the supernatant was removed. The precipitate was washed in 100 μL of buffer (20 mM HEPES pH=7.9; 420 mM NaCl; 1.5 mM MgCl2; 0.2 mM EDTA; 1 mM DTT; 25% glicerol) and centrifuged again to generate nuclear fraction. Cytosolic fractions were generated from the supernatantat 100.000 g […] 4° C. Both buffers were supplemented with protease inhibitors and serine-phosphatase. Nuclear and cytosolic fractions were subsequently subjected to western blotting.
The samples were dissected on ice and immediately frozen in liquid nitrogen or processed has previously detailed (Inestrosa et al, 2011). Briefly, tissues were homogenized in RIPA buffer (10 mM Tris-Cl, pH 7.4, EDTA 5 mM, 1% NP-40, 1% sodium deoxycholate, and 1% SDS) supplemented with a protease inhibitor mixture (1 mM PMSF, 2 μg/mL aprotinin, 1 μg/mL pepstatin and 10 μg/mL benzamidine) and phosphatase inhibitors (25 mMNaF, 100 mM Na3VO4, 1 mM EDTA and 30 μM Na4P207) using a Potter homogenizator and then passed sequentially through different caliber syringes. Protein samples were centrifuged at 14000 rpm at 4° C. twice for 15 min. Protein concentration was determined using the BCA Protein Assay Kit (Pierce). Samples were resolved by […] 10% SDS-PAGE and transferred to a PVDF membrane. The reactions were followed by incubation with anti-mouse, anti-goat or anti-rabbit IgG peroxidase conjugated (Pierce, Rockford, Ill.) and developed using an ECL kit (Western Lightning Plus ECL, PerkinElmer).
Hippocampal neurons were seeded onto poly-L-lysine-coated cover slips in 24-well culture plates at a density of 5×10^4 cells per well, as described previously (Arrazola et al, 2009; Chacon et al, 2008). A mouse monoclonal anti-b-catenin was used. Cells were extensively washed with PBS and then incubated with Alexa 488-conjugated anti-mouse IgG for 1 h at room temperature. Cells were mounted in mounting medium and analyzed in a Carl-Zeiss Confocal Laser Microscope.

[2] = target: T1, Immunoprecipitated GSK-3β from hippocampus of wild-type mice (Mus musculus, UniProt Q9WV60); assay: Luminometric GSK-3β activity assay; assay type: biochemical
T1 construct: the hippocampus of two month-old wild-type mice were lysed in immunoprecipitation buffer; from tissue; host or cells: hippocampus of two-month-old wild-type mice (immunoprecipitated with anti-GSK-3β antibody, Santa Cruz)
Protocol: The immunoprecipitation was performed as previously described (Garrido et al, 2002). Briefly, the hippocampus of two month-old wild-type mice were lysed in immunoprecipitation buffer (25 mM HEPES pH 7.4, 125 mMNaCl, 25 mMNaF, 1 mM EDTA, 1 mM EGTA, 1% NP-40) including phosphatase inhibitors (1 mM NaVO3 and 200 nM okadaic acid) and the protease inhibitor cocktail described above. 200 μg of total proteins from lysate were precleared by using protein G-Sepharose beads (Santa Cruz Biotechnology) for 1 h at 4° C. and then were incubated with anti-GSK-3β antibody (Santa Cruz Biotechnology) and new protein G beads for 4 h at 4° C. The immunocomplexes were finally pelleted and washed three times with cold immunoprecipitation buffer.
IC50 of ANDRO was determined by a luminometric GSK-3β activity assay. […] Briefly, ANDRO was tested at different concentrations and diluted in kinase buffer containing final concentrations of: 40 mM Tris pH 7.5; 20 mM MgCl2; 0.1 mg/ml BSA. […] The enzymatic reaction was stopped after 10 min of incubation to room temperature by adding 50 μl Kinase Glo (Promega, Madison, USA). The luminometric signal was allowed to stabilize for 10 min and the measured with a Luminometer TURNER DESIGNS model TD-2020.

[3] = hippocampal neurons, ANDRO 10 μM
[4] = hippocampal neurons, different concentrations for 6 h

T1 sequence (Q9WV60 whole entry): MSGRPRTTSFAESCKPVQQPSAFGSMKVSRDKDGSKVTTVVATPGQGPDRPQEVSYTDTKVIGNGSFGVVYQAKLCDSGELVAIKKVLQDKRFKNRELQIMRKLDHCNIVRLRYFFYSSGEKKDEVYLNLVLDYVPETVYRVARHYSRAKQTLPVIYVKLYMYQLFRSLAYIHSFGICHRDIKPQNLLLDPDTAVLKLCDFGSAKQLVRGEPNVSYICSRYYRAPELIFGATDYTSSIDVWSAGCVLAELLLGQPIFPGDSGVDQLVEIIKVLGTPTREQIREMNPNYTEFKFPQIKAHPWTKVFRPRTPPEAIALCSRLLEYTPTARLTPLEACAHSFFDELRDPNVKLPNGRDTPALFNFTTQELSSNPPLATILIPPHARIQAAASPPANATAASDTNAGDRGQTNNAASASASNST

pIC50 ([2]; 25 μM pGS-2 peptide substrate, 10 μM ATP, preincubation 10 min, read-out: inhibition constant (IC50) of GSK-3β activity): 5.25 | pIC50 ([2]; different concentrations of ATP, read-out: IC50 using different concentrations of ATP): ~5.25 | IC50 at increased substrate concentration ([2]; different concentrations of the substrate): increase in the IC50 of ANDRO
Structure (SMILES): C=C1CC[C@@H]2C(C)(CO)C(O)CC[C@@]2(C)C1C/C=C1/C(=O)OCC1O (stereo in doubt) [ANDRO, 3-(2-(Decahydro-6-hydroxy-5-(hydroxymethyl)-5,8a-dimethyl-2-methylenenaphthyl)ethylidene)dihydro-4-hydroxyfuran-2(3H)-one]
β-catenin levels by immunofluorescence ([1]; 5 μM for 6 h, neurons at 14 DIV): increased β-catenin levels | time of maximum increase of the inhibited form of GSK-3β [1, 3]: 6 h | time of peak accumulation of cytoplasmic and nuclear β-catenin [1, 3]: 9 h | accumulation of β-catenin [1, 4]: accumulation of β-catenin in a concentration-dependent manner | active form of GSK-3β (phospho-Tyr-216) [1, 4]: decrease in the active form (phosphor-Tyr-216) | inhibited form of GSK-3β (phospho-Ser-9) [1, 4]: increase in the inhibited form of the enzyme (phospho-Ser-9) | GSK-3β inhibition in the presence of DTT ([2]; 0.5 mM DTT): neither prevents the inhibition generated by ANDRO
